Values quoted from earlier work, collected in patent US10314914B2, “Iodophor composition and methods of use” (Veloce BioPharma, LLC, priority 2015, dated 2019).

Details: 50% solution of DMSO in water

rate of penetration: markedly enhanced
Structure (SMILES): C[C@]12CCC(=O)C=C1CC[C@@H]1[C@@H]2[C@@H](O)C[C@@]2(C)[C@H]1CC[C@]2(O)C(=O)CO [hydrocortisone]
